Reference: publication PMC3292467, “Comparison between ^68Ga-bombesin (^68Ga-BZH3) and the cRGD tetramer ^68Ga-RGD4 studies in an experimental nude rat model with a neuroendocrine pancreatic tumor cell line” (EJNMMI Research, 2011)
Like-named read-outs stand apart in the source and are kept apart here.

Tests used:
[1] = Dynamic PET, tumor uptake (SUV) in AR42J tumor-bearing nude rats; assay type: in vivo, rat; conditions: Wistar (nude), rat, tumor (AR42J), iv, i.v. 20 to 40 MBq (BZH3, n = 5), 10 to 30 MBq (RGD4, n = 4), nude rats, read-out: SUV (standardized uptake value) in tumor
Excerpt: (§1) Irregular regions of interest were drawn manually.

AR42J tumor [2] = experiment: as above; assay type: in vivo, rat; conditions: i.v. 20 to 40 MBq (BZH3, n = 5), 10 to 30 MBq (RGD4, n = 4), nude rats
Excerpt: as §1

AR42J tumor [3] = conditions: AR42J tumor-bearing nude rats, n = 5 (BZH3), n = 4 (RGD4); for VB (vessel density, fractional blood volume): dynamic PET 60 min, i.v.
Procedure: The AR42J cell line, derived from a rat exocrine pancreas neuroendocrine tumor, was used. Cells were obtained from the European Collection of Cell Cultures and were grown in RPMI 1640 medium supplemented with 2 mmol/L glutamine and 10% fetal calf serum. Adherent cells were dislodged with trypsin/ethylenediaminetetraacetic acid (0.02%: 0.05%, w/v). For PET-studies, 5 × 10^6 cells in 200 μl RPMI without supplements were inoculated subcutaneously in the right hind leg of Wistar rats.
The study included nine AR 42 J tumor-bearing nude rats. We grouped all rats according to PET tracers (B, ^68Ga-BZH3 and R, ^68Ga-RGD4), used in dynamic PET scanning, as noted in Table 1. Dynamic PET studies were performed for 60 min after the intravenous application of 10 to 30 MBq ^68Ga-RGD4 or 20 to 40 MBq ^68Ga-BZH3, using a 28-frame protocol (ten frames of 30 s, five frames of 60 s, five frames of 120 s, and eight frames of 300 s). Two animals can be examined in parallel per scanning by a homemade injector (Figure 2). A dedicated PET-CT system (Biograph™ mCT, 128 S/X, Siemens Co, Erlangen, Germany) with an axial field of view of 21.6 cm with TrueV, operated in a three-dimensional mode, was used for all animal studies. The system provides the simultaneous acquisition of 369 transverse slices with a slice thickness of 0.6 mm. The animals were positioned in the axial plane of the system to maintain the best resolution in the center of the system. All PET images were attenuation-corrected and an image matrix of 400 × 400 pixels was used for iterative image reconstruction (voxel size 1.565 × 1.565 × 0.6 mm) based on the syngo MI PET/CT 2009C software version. After the end of the dynamic series an ultrahigh resolution CT with 85 mA, 80 kV and a pitch of 0.85 cm was performed for attenuation correction of the acquired dynamic emission data. The reconstructed images were converted to SUV images based on the formula [24]: SUV = Tissue concentration (becquerel per gram)/[injected dose ([…]))/body weight (gram)]. The SUV 55 to 60 min post-injection was used for the assessment of both tracers. The SUV images were used for all further quantitative evaluations.
Dynamic PET data were evaluated using the software package PMOD (provided courtesy of PMOD Technologies Ltd., Zuerich, Switzerland). Areas with enhanced tracer uptake on transaxial, coronal, and sagittal images were evaluated visually. A volume of interest consists of several regions of interest over the target area. Irregular regions of interest were drawn manually. A detailed quantitative evaluation of tracer kinetics requires the use of compartmental modeling. A two-tissue-compartment model was used to evaluate the dynamic studies.
In animals, a partial volume correction must be applied to the data due to the small size of the input and tumor volumes of interest (VOIs). Herein, the recovery coefficient was 0.85 for a diameter of 8 mm and 0.32 for a diameter of 3 mm based on phantom measurements as well as the recent parameter settings used with the reconstruction software. For the input function the mean values of the VOI data obtained from the heart were used. We used a preprocessing tool, which allowed a fit of the input curve by a sum of up to three decaying exponentials. The learning-machine two-tissue-compartment model was used for the fitting and provided five parameters: the transport parameters for tracer into and out of the cell, K1 and k2, the parameters for phosphorylation and dephosphorylation of intracellular tracer, k3 and k4, and the fractional blood volume, also called vessel density (VB), which reflects the amount of blood in the VOI. Following compartment analysis, we calculated the global influx of tracer from the compartment data using the formula: influx = (K1 × k3)/(k2 + k3). […] The model parameters were accepted when K1 - k4 was less than 1 and VB exceeded 0. The unit for the rate constants K1 to k4 was 1/min.

[4] = 3D fused PET-CT images; male rat
Procedure: The study included nine AR 42 J tumor-bearing nude rats. We grouped all rats according to PET tracers (B, ^68Ga-BZH3 and R, ^68Ga-RGD4), used in dynamic PET scanning, as noted in Table 1. Dynamic PET studies were performed for 60 min after the intravenous application of 10 to 30 MBq ^68Ga-RGD4 or 20 to 40 MBq ^68Ga-BZH3, using a 28-frame protocol (ten frames of 30 s, five frames of 60 s, five frames of 120 s, and eight frames of 300 s). Two animals can be examined in parallel per scanning by a homemade injector (Figure 2). A dedicated PET-CT system (Biograph™ mCT, 128 S/X, Siemens Co, Erlangen, Germany) with an axial field of view of 21.6 cm with TrueV, operated in a three-dimensional mode, was used for all animal studies. The system provides the simultaneous acquisition of 369 transverse slices with a slice thickness of 0.6 mm. The animals were positioned in the axial plane of the system to maintain the best resolution in the center of the system. […] The SUV images were used for all further quantitative evaluations.
Dynamic PET data were evaluated using the software package PMOD (provided courtesy of PMOD Technologies Ltd., Zuerich, Switzerland). Areas with enhanced tracer uptake on transaxial, coronal, and sagittal images were evaluated visually. […] A detailed quantitative evaluation of tracer kinetics requires the use of compartmental modeling. […]

ανβ3 = ανβ3 (Homo sapiens, UniProt P05106+P06756); experiment: biochemical
ανβ3, sequence (P06756 31-889 limits assumed): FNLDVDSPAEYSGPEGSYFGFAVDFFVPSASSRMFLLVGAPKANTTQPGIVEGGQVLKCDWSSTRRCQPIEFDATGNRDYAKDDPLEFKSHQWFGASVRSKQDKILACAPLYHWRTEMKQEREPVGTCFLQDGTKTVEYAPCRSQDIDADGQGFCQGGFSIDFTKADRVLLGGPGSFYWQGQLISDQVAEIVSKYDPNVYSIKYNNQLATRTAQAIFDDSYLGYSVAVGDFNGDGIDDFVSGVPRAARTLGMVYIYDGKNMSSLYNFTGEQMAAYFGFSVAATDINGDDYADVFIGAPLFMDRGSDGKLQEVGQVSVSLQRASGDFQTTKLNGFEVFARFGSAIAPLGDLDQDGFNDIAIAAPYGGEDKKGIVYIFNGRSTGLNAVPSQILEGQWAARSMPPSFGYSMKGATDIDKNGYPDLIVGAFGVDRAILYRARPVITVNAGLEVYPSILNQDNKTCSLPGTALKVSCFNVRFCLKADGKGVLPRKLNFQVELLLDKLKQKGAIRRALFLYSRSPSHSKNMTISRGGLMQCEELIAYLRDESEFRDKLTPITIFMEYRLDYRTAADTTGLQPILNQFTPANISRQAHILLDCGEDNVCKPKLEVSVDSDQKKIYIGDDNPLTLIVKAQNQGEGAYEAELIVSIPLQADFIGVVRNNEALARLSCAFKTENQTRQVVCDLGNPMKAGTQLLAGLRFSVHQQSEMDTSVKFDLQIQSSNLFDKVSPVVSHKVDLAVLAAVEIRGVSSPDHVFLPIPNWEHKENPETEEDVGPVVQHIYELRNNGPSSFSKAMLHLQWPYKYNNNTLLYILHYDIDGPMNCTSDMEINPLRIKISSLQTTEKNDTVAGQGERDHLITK
ανβ3, sequence (P06756 891-1048 partner limits assumed): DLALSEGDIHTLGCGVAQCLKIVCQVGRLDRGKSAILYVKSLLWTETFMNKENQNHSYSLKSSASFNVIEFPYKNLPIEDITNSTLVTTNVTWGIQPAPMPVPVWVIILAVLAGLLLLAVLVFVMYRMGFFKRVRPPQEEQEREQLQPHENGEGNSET
ανβ3, sequence (P05106 27-788): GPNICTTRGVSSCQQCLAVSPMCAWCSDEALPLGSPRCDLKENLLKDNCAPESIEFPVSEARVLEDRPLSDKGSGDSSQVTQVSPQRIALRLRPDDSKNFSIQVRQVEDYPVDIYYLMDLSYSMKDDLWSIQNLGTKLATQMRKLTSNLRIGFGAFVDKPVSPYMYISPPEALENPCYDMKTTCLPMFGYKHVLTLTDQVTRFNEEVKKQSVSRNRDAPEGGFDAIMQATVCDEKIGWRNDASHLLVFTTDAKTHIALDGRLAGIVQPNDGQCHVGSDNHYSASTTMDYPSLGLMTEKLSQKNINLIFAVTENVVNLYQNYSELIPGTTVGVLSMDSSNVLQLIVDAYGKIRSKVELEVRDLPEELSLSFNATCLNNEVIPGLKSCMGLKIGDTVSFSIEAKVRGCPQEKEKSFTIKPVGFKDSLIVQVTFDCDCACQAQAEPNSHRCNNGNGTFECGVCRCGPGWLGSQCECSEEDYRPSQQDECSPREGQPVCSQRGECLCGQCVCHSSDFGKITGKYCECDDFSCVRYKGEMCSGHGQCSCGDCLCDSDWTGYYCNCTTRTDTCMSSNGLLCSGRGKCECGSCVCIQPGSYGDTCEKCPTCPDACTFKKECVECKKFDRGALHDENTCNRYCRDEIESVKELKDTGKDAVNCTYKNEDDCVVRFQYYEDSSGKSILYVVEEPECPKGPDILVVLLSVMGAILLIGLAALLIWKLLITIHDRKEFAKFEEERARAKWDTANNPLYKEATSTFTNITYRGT

[5] = median, between tracers P 0.05*

## N=C(N)NCCC[C@@H]1NC(=O)[C@H](CCCCNC(=O)COCCOCCNC(=O)CSC2CC(=O)N(CCCC(=O)NCCCC[C@H](NC(=O)CCCN3C(=O)CC(SCC(=O)NCCOCCOCC(=O)NCCCC[C@@H]4NC(=O)[C@@H](Cc5ccccc5)NC(=O)[C@H](CC(=O)O)NC(=O)CNC(=O)[C@H](CCCNC(=N)N)NC4=O)C3=O)C(=O)NCCCC[C@H](NC(=O)[C@H](CCCCNC(=O)CCCN3C(=O)CC(SCC(=O)NCCOCCOCC(=O)NCCCC[C@@H]4NC(=O)[C@@H](Cc5ccccc5)NC(=O)[C@H](CC(=O)O)NC(=O)CNC(=O)[C@H](CCCNC(=N)N)NC4=O)C3=O)NC(=O)CCCN3C(=O)CC(SCC(=O)NCCOCCOCC(=O)NCCCC[C@@H]4NC(=O)[C@@H](Cc5ccccc5)NC(=O)[C@H](CC(=O)O)NC(=O)CNC(=O)[C@H](CCCNC(=N)N)NC4=O)C3=O)C(=O)N[C@@H](CCCCNC(=O)CN3CCN(CC(=O)O)CCN(CC(=O)O)CCN(CC(=O)O)CC3)C(N)=O)C2=O)NC(=O)[C@@H](Cc2ccccc2)NC(=O)[C@H](CC(=O)O)NC(=O)CNC1=O (stereo partly shown) [^68Ga-RGD4, metal not drawn]
[1]; mean, 55 to 60 min post-injection
  SUV: 1.02 SUV
[1]; median, 55 (56) to 60 min post-injection, between tracers P 0.8065
  SUV: 0.989 SUV
AR42J tumor [2]; maximum, 55 to 60 min post-injection
  SUV (standardized uptake value) in tumor: 1.3084
AR42J tumor [2]; median, 55 (56) to 60 min post-injection, between tracers P 0.8065, listed as 68Ga-RGD tetramer
  SUV (standardized uptake value) in tumor: 0.99
AR42J tumor [2]; minimum, 55 to 60 min post-injection
  SUV (standardized uptake value) in tumor: 0.7833
AR42J tumor [3]; maximum
  VB (vessel density, fractional blood volume): 0.0713
  K1 (transport into the cell; associated with receptor binding): 0.3195 min⁻¹
  RBP (receptor binding potential): 0.0514
  k2 (displacement from the receptor): 0.6152 min⁻¹
  k3 (cellular internalisation): 0.1352 min⁻¹
  k4 (externalization): 0.0504 min⁻¹
AR42J tumor [3]; mean
  VB (vessel density, fractional blood volume): 0.0582
  K1 (transport into the cell; associated with receptor binding): 0.2739 min⁻¹
  RBP (receptor binding potential): 0.0453
  k2 (displacement from the receptor): 0.5386 min⁻¹
  k3 (cellular internalisation): 0.1097 min⁻¹
  k4 (externalization): 0.0443 min⁻¹
AR42J tumor [3]; [5]
  VB (vessel density, fractional blood volume): 0.0574
  K1 (transport into the cell; associated with receptor binding): 0.2728 min⁻¹
  k4 (externalization): 0.0442 min⁻¹
AR42J tumor [3]; median, between tracers P 0.0275*
  RBP (receptor binding potential): 0.0442
AR42J tumor [3]; median, between tracers P 0.4624
  k2 (displacement from the receptor): 0.5721 min⁻¹
AR42J tumor [3]; median, between tracers P 0.8065
  k3 (cellular internalisation): 0.1180 min⁻¹
AR42J tumor [3]; minimum
  VB (vessel density, fractional blood volume): 0.0468
  K1 (transport into the cell; associated with receptor binding): 0.2304 min⁻¹
  RBP (receptor binding potential): 0.0414
  k2 (displacement from the receptor): 0.3952 min⁻¹
  k3 (cellular internalisation): 0.0678 min⁻¹
  k4 (externalization): 0.0382 min⁻¹
[4]
  tracer uptake in other sites: heart (exhibit for ^68Ga-RGD4), liver, kidney, urinary bladder, and testicles
ανβ3
  IC50: 4.97 µM
